Assay [1] concerns Mycobacterium tuberculosis non-replicating, growth inhibition plate reader. Put plainly: inhibitor activity on non-replicating M. tuberculosis, dose response, plate reader, dry powder (AID 743175).
Test in assay [2]: as above
The note with it: Mycobacterium tuberculosis non-replicating, growth inhibition plate reader.

Activity calls are given as the source filed them. The rule behind the calls is not given here.

`COc1ccccc1C#Cc1ccc([C@@H]2[C@H](C#N)N(C(=O)C3CC3)[C@H]2CO)cc1`: in assay [1], the AC90 was > 23.5 µM (inactive). Same read-out and setting: under `O=C(NCc1cccs1)c1ccc(Br)o1` stands > 38 µM (inactive); under `COC(=O)COc1cccc(NC(=O)c2ccc(Cl)cc2)c1`, > 38 µM (inactive); under `Cc1cccc(C)c1N1C(=O)CC(N2CCSCC2)C1=O` (stereo not given), 5.72 µM. Same read-out and setting: the same measure for `CCOC(=O)COc1ccc(C(=O)NC2CCCCC2)cc1`: > 38 µM (inactive). As to `COc1ccccc1C#Cc1ccc([C@@H]2[C@@H](C#N)N(C(=O)C3CC3)[C@H]2CO)cc1`, the AC90 in assay [1] is > 26 µM (inactive). On the same count and under the same terms, the same measure for `Cc1cccc(Cn2ccc(NC(=O)c3ccc4c(c3)OCO4)n2)c1`: 20 µM. Take `CCCCN(C/C=C/c1ccccc1OC)Cc1ccccc1`: the AC90 in assay [1] is > 38 µM (inactive). The same measure, in the same setting: under `CCOC(=O)COc1ccc2c(=O)cc(-c3ccccc3)oc2c1` stands > 38 µM (inactive); under `COC(=O)COc1ccc2c(=O)c(Oc3ccccc3)c(C)oc2c1`, > 38 µM (inactive). On to `COc1ccccc1C#Cc1ccc([C@H]2[C@@H](CO)N(C(=O)C3CC3)[C@H]2C#N)cc1`, for which the activity change, negative = inhibition in assay [2] (at 26 µM (top of the series)) was -16.4% (inactive). Also, in assay [1], the AC90 is > 26 µM (inactive). For `Brc1c(-c2ccc3c(c2)OCO3)nc2ncccn12`, in assay [1], the AC90 was 32.3 µM. The same measure, in the same setting: the same measure for `O=C(Nc1nc2ccccc2[nH]1)c1cccc(Cl)c1`: 11.4 µM.

Consider `O=C(COc1c(Br)cc(Br)c2cccnc12)N1CCCCC1`, for which the AC90 in assay [1] was 6.33 µM.

Take `O=C(NC1CC2CCC1C2)C1COc2ccccc2O1` (stereo not given): the AC90 in assay [1] is > 38 µM (inactive). For the compound `CCc1ccc(OCCCC(=O)NCc2ccco2)cc1`, in assay [1], the AC90 is > 38 µM (inactive). On the same count and under the same terms, the same measure for `c1ccc(Nc2nc(-c3ccccn3)cs2)cc1`: > 38 µM (inactive); for `NC1CCN(c2c(F)cc3c(=O)c(C(=O)O)cn(C4CC4)c3c2Cl)C1` (stereo not given): 2.94 µM. Same read-out and setting: the same measure for `CCOCCOC(=O)COc1ccc2c(-c3ccccc3)cc(=O)oc2c1`: > 38 µM (inactive).

Regarding `CCOC(=O)c1cc(-c2csc(COc3ccccc3)n2)on1`, the AC90 in assay [1] is > 38 µM (inactive). The same measure, in the same setting: the same measure for `COc1ccccc1C#Cc1ccc([C@H]2[C@H](C#N)N(C(=O)C3CC3)[C@H]2CO)cc1`: > 26 µM (inactive); for `CCOC(=O)c1sc(NC(=O)CCN2CCOCC2)c(C(=O)OCC)c1C`: > 38 µM (inactive); for `CCOC(=O)COc1ccc2c(=O)c(-c3ccccc3)coc2c1`: > 38 µM (inactive).

Regarding `CCOC(=O)COc1ccc2c(c1)C(=O)CC1(CCCCC1)O2`, in assay [1], the AC90 is > 38 µM (inactive). The same measure, in the same setting: the same measure for `O=C(COc1cccc2ccccc12)Nc1nc2ccccc2[nH]1`: > 38 µM (inactive). `Cc1noc(C)c1NC(=O)Nc1ccc2c(c1)C(=O)N(C)[C@@H]1CC[C@@H](CC(=O)NCc3ccc(Cl)cc3)O[C@H]1CO2`: the activity change, negative = inhibition in assay [2] (at 23.5 µM (top of the series)) was -4.47% (inactive). As to `Cc1noc(C)c1NC(=O)Nc1ccc2c(c1)C(=O)N(C)[C@@H]1CC[C@@H](CC(=O)NCc3ccc(Cl)cc3)O[C@@H]1CO2`, in assay [2] (at 26 µM (top of the series)), the activity change, negative = inhibition is -1.24% (inactive). Take `Cc1nnc(NC(=O)c2ccc3ccccc3c2)o1`: the AC90 in assay [1] is 1.34 µM. As for `O=C(C[C@@H]1C[C@H]2c3cc(NC(=O)c4cccnc4)ccc3O[C@H]2[C@H](CO)O1)NCC(F)(F)F`, the activity change, negative = inhibition in assay [2] (at 26 µM (top of the series)) was 4.14% (inactive).

The values above are taken from PubChem BioAssay AID743175 (Broad Institute, 2013).
